Laboratory results as given in patent US8283365B2, “Indole modulators of the alpha 7 nicotinic acetylcholine receptor” (Proximagen Limited, priority 2008, dated 2012).

Target: T1, human α7 nAChR (Homo sapiens, UniProt P36544)
T1 construct: expressed in transfected cells; host or cells: GH4C1 (rat pituitary) cell line, stably transfected
Test: FLIPR cell-based calcium flux assay for PAM activity at α7 nAChR (nicotine-evoked response)
Conditions: GH4C1 cell line stably transfected with human α7 nAChR
Protocol: The PAM activity of the compounds of the invention at the α7 nAChR may be determined using the following cell-based calcium flux assay which uses a Fluorimetric Image Plate Reader (FLIPR) (see Schroeder et al.; J. Biomolecular Screening, 1(2), p 75-80, 1996).
GH4C1 cell line stably transfected with human α7 nAChR was suspended in a 384 well plate and incubated at 30° C. for 48 h in a 5% carbon dioxide atmosphere. The growth media was removed and the cells washed three times with a solution of Hanks' balanced salt solution (HBSS), 20 mM HEPES and 2.5 mM probenecid leaving 20 μl washing solution in each well. A loading solution (20 μl) containing HBSS, probenecid, 1-4 μM Fluo4 AM (a calcium indicator dye) and pluronic acid was added and the plate incubated for 45 min at 37° C. under an atmosphere free from carbon dioxide. The cells were washed three times leaving 30 μl in each well. The plate containing the cells and calcium indicator dye were then transferred to the FLIPR. The assay was initiated by collecting baseline datapoints at 10 second intervals followed by addition of the test compound in buffer solution (0.33% DMSO) and diluted to a final concentration of 10 μM and serial dilution of the wells, 1:2 or 1:3, gave a low concentration of <1 nM. Following a further 5-10 mins 10 μl of 50 μM nicotine was added and data collected for 2-3 mins. […]

T1 sequence (P36544 23-502): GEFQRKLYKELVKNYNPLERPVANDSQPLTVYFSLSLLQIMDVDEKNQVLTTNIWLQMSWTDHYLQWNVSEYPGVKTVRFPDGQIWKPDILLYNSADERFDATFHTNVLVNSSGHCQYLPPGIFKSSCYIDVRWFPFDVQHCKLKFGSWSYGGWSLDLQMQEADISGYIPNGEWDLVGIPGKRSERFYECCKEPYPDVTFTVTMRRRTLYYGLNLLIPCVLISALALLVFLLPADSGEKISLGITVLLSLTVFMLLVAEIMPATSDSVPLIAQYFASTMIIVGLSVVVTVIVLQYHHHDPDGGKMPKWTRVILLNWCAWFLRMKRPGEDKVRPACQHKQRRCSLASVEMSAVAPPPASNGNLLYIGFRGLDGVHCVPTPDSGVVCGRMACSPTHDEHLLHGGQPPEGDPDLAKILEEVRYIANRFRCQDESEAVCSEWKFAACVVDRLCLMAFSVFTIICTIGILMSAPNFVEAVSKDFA

EC50 (potentiation of nicotine-evoked calcium flux): < 1 µM
maximum potentiation of the response area relative to nicotine control (relative to nicotine control): approximately 1200%
Compound: O=C(NCc1ccc2[nH]c(C(F)(F)F)cc2c1)c1ccc(C(F)(F)F)nc1 [Compound 1, N-[(2-Trifluoromethyl-1H-indol-5-yl)methyl]-6-(trifluoromethyl)-3-pyridinecarboxamide]
